System: 855422-203-R-J1-PDC complex spheroid viability
Experiment: Anticancer human tumor 855422-203-R-J1-PDC patient-derived bladder carcinoma cell line growth inhibition [POLQ]
Settings: for IC50: curve of first compound; for viability, T/C: stronger effect = lower value
Protocol: Multicellular complex tumor spheroid response to Polymerase (POL) inhibitors (novobiocin, ART-558, RP6685) in combination with a variety of drugs and investigational agents in selected tumor cell lines
The POL inhibitors (novobiocin, ART-558, and RP6685) were evaluated both individually and in combination with standard of care and investigational anticancer small molecules within a complex spheroid model of solid tumors. . Complex spheroids include a stromal component modeled by human endothelial cells (HUVEC) and fibroblasts modeled by human mesenchymal stem cells (MSCs). The concentration ranges selected for each drug and investigational agent were based upon clinically achievable concentrations if the clinical Cmax of the agent was known.
Compounds. The drugs and investigational agents: novobiocin (NSC847541), ART-558 (NSC835418), RP-6685 (NSC848927), peposertib (NSC802822), ceralasertib (NSC780249), elimusertib (NSC800525), camonsertib (NSC841442), AZD-1390 (NSC803789), olaparib (NSC753686), talazoparib (NSC767125), rucaparib (NSC756644), sotorasib (NSC818433), MRTX-1133 (NSC836407), SN-38 (NSC673596), topotecan (NSC609699), epotoside (NSC141540), doxorubicin (NSC123127), gemcitabine (NSC613327), 5-fluorouracil (NSC19893), paclitaxel (NSC125973), vemurafenib (NSC761431), MSA-2 (NSC828583), SN-011 (NSC837082), adavosertib (NSC754352), prexasertib (NSC758257), carboplatin (NSC241240) and oxaliplatin (NSC266046), were obtained from the National Cancer Institute (NCI) Developmental Therapeutics Program Chemical Repository (21). The FDA-approved anticancer drug set is available from the Developmental Therapeutics Program at https://dtp.cancer.gov/organization/dscb/obtaining/. […] The stock solutions were prepared in dimethyl sulfoxide (DMSO, Sigma-Aldrich, St. Louis, MO, cat. D2650), except for the platinum compounds which were prepared in saline (Quality Biological, Gaithersburg, MD, cat. 114-055-101), at 800-fold the tested concentration and stored at -70 degrees C prior to their use. All drugs and investigational agents were tested over a range starting from a high concentration at or near the clinical Cmax and decreasing in half-log increments. If the clinical Cmax for an agent had not been determined, the highest concentration tested was 10 microM, except for SN-38, which was tested at a high concentration of 1 microM.
Cell Culture. All cells were maintained in an incubator at 37 degrees C and 5% CO2 with 95% humidity. The PDC lines were cultured according to standard operating procedures established by the NCI PDMR (https://pdmr.cancer.gov). Table 3 of the manuscript, lists the cell lines along with the number of the three cell types plated to form the mct-spheroids and media for tumor cell growth. After thawing, all PDC lines, except 997537-175-T-J1-PDC and 415267-285-R-J2-PDC, were cultured in Matrigel-coated flasks prepared with a working solution of 1X Ham's F-12 nutrient mix, without supplementation (Thermo Fisher Scientific, cat. 11765054), 100 U/mL penicillin-streptomycin (Thermo Fisher Scientific, cat. 15140122), and 2.5% Matrigel (Corning Inc., Corning, NY, cat. 354248) for the first three passages. The two PDC lines 997537-175-T-J1-PDC and 415267-285-R-J2-PDC were cultured on uncoated flasks. The 857933-349-R-J2-PDC line was cultured in 6C/Colon 1B media containing advanced DMEM/F-12 (Thermo Fisher Scientific, cat. 12634028), 10 mM HEPES (Thermo Fisher Scientific, cat. 15630080), 1X GlutaMAX supplement (Thermo Fisher Scientific, cat. 35050061), 0.1 mg/mL primocin (InvivoGen, San Diego, CA, cat. ant-pm-2), 10% defined fetal bovine serum, heat inactivated (HyClone Laboratories Inc., Logan, UT, cat. SH30070.03HI), 50% L-WRN conditioned media (ATCC, cat. CRL-3276), 1.25 mM N-Acetyl-L-cysteine (Sigma-Aldrich, cat. A9165), 10 mM nicotinamide (Sigma-Aldrich, cat. N0636), 1X B-27 supplement (Thermo Fisher Scientific, cat. 17504044), 1X N-2 supplement (Thermo Fisher Scientific, cat. […]

[1] = second compound 0.0316 µM, first compound 0.0316 µM
[2] = second compound 0.0316 µM, first compound 0.1 µM
[3] = second compound 0.0316 µM, first compound 0.316 µM
[4] = second compound 0.0316 µM, first compound 1 µM
[5] = second compound 0.0316 µM, first compound 3.16 µM
[6] = second compound 0.0316 µM, first compound 10 µM
[7] = second compound 0.1 µM, first compound 0.0316 µM
[8] = second compound 0.1 µM, first compound 0.1 µM
[9] = second compound 0.1 µM, first compound 0.316 µM
[10] = second compound 0.1 µM, first compound 1 µM
[11] = second compound 0.1 µM, first compound 3.16 µM
[12] = second compound 0.1 µM, first compound 10 µM
[13] = second compound 0.316 µM, first compound 0.0316 µM
[14] = second compound 0.316 µM, first compound 0.1 µM
[15] = second compound 0.316 µM, first compound 0.316 µM
[16] = second compound 0.316 µM, first compound 1 µM
[17] = second compound 0.316 µM, first compound 3.16 µM
[18] = second compound 0.316 µM, first compound 10 µM
[19] = second compound 1 µM, first compound 0.0316 µM
[20] = second compound 1 µM, first compound 0.1 µM
[21] = second compound 1 µM, first compound 0.316 µM
[22] = second compound 1 µM, first compound 1 µM
[23] = second compound 1 µM, first compound 3.16 µM
[24] = second compound 1 µM, first compound 10 µM
[25] = second compound 3.16 µM, first compound 0.0316 µM
[26] = second compound 3.16 µM, first compound 0.1 µM
[27] = second compound 3.16 µM, first compound 0.316 µM
[28] = second compound 3.16 µM, first compound 1 µM
[29] = second compound 3.16 µM, first compound 3.16 µM
[30] = second compound 3.16 µM, first compound 10 µM
[31] = second compound 10 µM, first compound 0.0316 µM
[32] = second compound 10 µM, first compound 0.1 µM
[33] = second compound 10 µM, first compound 0.316 µM
[34] = second compound 10 µM, first compound 1 µM
[35] = second compound 10 µM, first compound 3.16 µM
[36] = second compound 10 µM, first compound 10 µM
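Further: spheroids exposed to compounds for seven days before readout.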

COc1cc(C2c3cc4c(cc3C(OC3OC5COC(C)OC5C(O)C3O)C3COC(=O)C23)OCO4)cc(OC)c1O (centres undefined) + COC1C(OC(N)=O)C(O)C(Oc2ccc3c(O)c(NC(=O)c4ccc(O)c(CC=C(C)C)c4)c(=O)oc3c2C)OC1(C)C
IC50 (second compound 0.0316 µM): 242 nM | IC50 (second compound 0.1 µM): 245 nM | IC50 (second compound 0.316 µM): 227 nM | IC50 (second compound 1 µM): 234 nM | IC50 (second compound 3.16 µM): 210 nM | IC50 (second compound 10 µM): 215 nM | viability, T/C [1]: 99.4% | viability, T/C [2]: 99.7% | viability, T/C [3]: 35.1% | viability, T/C [4]: 11.9% | viability, T/C [5]: 8.5% | viability, T/C [6]: 5.28% | viability, T/C [7]: 95.2% | viability, T/C [8]: 102% | viability, T/C [9]: 36.2% | viability, T/C [10]: 12.8% | viability, T/C [11]: 7.81% | viability, T/C [12]: 4.05% | viability, T/C [13]: 99.2% | viability, T/C [14]: 103% | viability, T/C [15]: 29.4% | viability, T/C [16]: 13.3% | viability, T/C [17]: 8.9% | viability, T/C [18]: 5.06% | viability, T/C [19]: 107% | viability, T/C [20]: 99.7% | viability, T/C [21]: 32.2% | viability, T/C [22]: 11.6% | viability, T/C [23]: 7.12% | viability, T/C [24]: 4.08% | viability, T/C [25]: 128% | viability, T/C [26]: 85.9% | viability, T/C [27]: 29.5% | viability, T/C [28]: 12.7% | viability, T/C [29]: 8.6% | viability, T/C [30]: 4.59% | viability, T/C [31]: 111% | viability, T/C [32]: 88.8% | viability, T/C [33]: 29.9% | viability, T/C [34]: 12.9% | viability, T/C [35]: 7.13% | viability, T/C [36]: 5.19%

COc1cccc2c1C(=O)c1c(O)c3c(c(O)c1C2=O)CC(O)(C(=O)CO)CC3OC1CC(N)C(O)C(C)O1 (centres undefined) + COC1C(OC(N)=O)C(O)C(Oc2ccc3c(O)c(NC(=O)c4ccc(O)c(CC=C(C)C)c4)c(=O)oc3c2C)OC1(C)C
IC50 (second compound 0.0316 µM): < 31.6 nM | IC50 (second compound 0.1 µM): < 31.6 nM | IC50 (second compound 0.316 µM): < 31.6 nM | IC50 (second compound 1 µM): < 31.6 nM | IC50 (second compound 3.16 µM): < 31.6 nM | IC50 (second compound 10 µM): < 31.6 nM | viability, T/C [1]: 12.4% | viability, T/C [2]: 11.1% | viability, T/C [3]: 1.99% | viability, T/C [4]: 0.29% | viability, T/C [5]: 0.38% | viability, T/C [6]: 1.85% | viability, T/C [7]: 15.1% | viability, T/C [8]: 10.9% | viability, T/C [9]: 3.53% | viability, T/C [10]: 0.21% | viability, T/C [11]: 0.32% | viability, T/C [12]: 1.27% | viability, T/C [13]: 14.5% | viability, T/C [14]: 10.1% | viability, T/C [15]: 1.84% | viability, T/C [16]: 0.63% | viability, T/C [17]: 0.37% | viability, T/C [18]: 1.74% | viability, T/C [19]: 18.5% | viability, T/C [20]: 10.4% | viability, T/C [21]: 2.23% | viability, T/C [22]: 0.32% | viability, T/C [23]: 0.3% | viability, T/C [24]: 2.92% | viability, T/C [25]: 15.4% | viability, T/C [26]: 10.4% | viability, T/C [27]: 2.63% | viability, T/C [28]: 0.31% | viability, T/C [29]: 0.58% | viability, T/C [30]: 1.48% | viability, T/C [31]: 16.2% | viability, T/C [32]: 9.82% | viability, T/C [33]: 2.61% | viability, T/C [34]: 0.29% | viability, T/C [35]: 0.47% | viability, T/C [36]: 1.58%

Reference: PubChem BioAssay AID1963838 (Molecular Pharmacology Branch, DTP, NCI, 2024)
